Data on one compound can be found in publication PMC10103840 (Frontiers in Pharmacology, 2023).

For one data set, the system named is BeWo cells. Conditions: ref Spiess et al., 2022b; cited from earlier work.

Where “and” joins values, the source holds several entries; their conditions need not be identical. Equal values may be shown once. Bounds are passed on as bounds.

Turning to `CC(C)=CCC[C@]1(C)[C@@H](CC=C(C)C)C[C@]2(CC=C(C)C)C(=O)C(CC=C(C)C)=C(O)[C@@]1(C(=O)C(C)C)C2=O` [Hyperforin, hyperforin], in the data set on human placental barrier (240 min perfusion, 5 μM maternal), the “Transplacental transfer (in words)” value is “little transfer to the fetal circuit”. In addition, in the data set on human placental barrier (after 240 min of perfusion, 5 μM added to maternal circuit), the “Concentration in the maternal compartment” value is recorded as 68.6 % of initial concentration. In addition, in the data set on human placental barrier (amount removed by sampling during 240 min perfusion), the “Sampling (% found)” value was determined as 21.0 ± 4.5%. Moreover, in the data set with human placental barrier (maternal perfusate after 240 min, % of amount in maternal sample at beginning), the “M perfusate (% found)” value is 52.2 ± 21.5% and 52.2%. The “Concentration with increased apoptosis / apoptotic effects” value in the data set with BeWo cells is not below 3 µM.
